Experimental data published in patent US11135214B2, “Methods for enhancing the bio availability and exposure of a voltage-gated potassium channel opener” (priority 2018, dated 2021).
Several values for one entry are separate records, joined by “and”; a condition that tells them apart may be missing. Equal entries are not always repeated. Where two headings read alike, the source gives them in different places.

Experiment: TMS crossover study, pharmacokinetic analysis
Assay type: in vivo, human
Conditions: for extrapolated area (% AUCextrap): full PK data set; for Compound A Plasma Concentration: individual subjects; for concentration at 2 h / concentration at 4 h / concentration at 6 h / half-life / AUC(0-t) / Cmax / Tmax / AUC(0-inf) / MRT inf / MRT last / CL/F / Vd/F: male, human, plasma, oral; for Vd/F: read-out: Vz/F normalized
Experimental: A randomized, double-blind, placebo-controlled, transcranial magnetic stimulation (TMS) crossover study investigated the safety, tolerability, pharmacokinetics (PK), and pharmacodynamics (PD) of single doses of Compound A in healthy right-handed male subjects.
Twenty healthy right-handed male subjects were enrolled and randomized in a blinded fashion to receive a single oral dose of 20 mg Compound A or placebo (1:1 randomization ratio) on Day 1, then were crossed over to receive a single dose of the other treatment on Day 7.
Subjects were screened within 27 days prior to entering the study on Day 1. For Period 1, subjects were admitted to the study unit and dosed on Day 1, and discharged on Day 2. For Period 2, following a washout of 6 days, the same subjects were again admitted to the study unit and dosed on Day 7, and discharged on Day 8. All subjects returned to the clinical unit for an outpatient visit on Day 14, and received a follow-up telephone call on Day 37.
Subjects were dosed in a fed state, but the timing of dosing relative to meals was changed during the study, and varied between a high fat or standard meal eaten either 2 h or 30 minutes prior to dosing, and a high fat or standard meal eaten 1 h or 2.5 h after dosing.
The PK parameters for this study were summarized in two ways. Firstly, PK parameters were calculated where possible using the PK samples collected during each 24 h sampling period for Period 1 and Period 2 separately. Secondly, PK parameters were determined using samples beyond the 24 h sampling period (i.e., from Day 7/8 and/or Day 14). For subjects who received Compound A in the first period, PK samples taken prior to placebo treatment provided additional PK timepoints at >24 h. For subjects who received Compound A in the second period, there was no >24 h PK timepoint until a Day 14 PK sample was added. […] The full PK profile data set consists of the 16 subjects for whom PK samples were taken at >24 h post-dose. For discussion of the PK parameters below, the full PK profile data set was generally used, because it allowed more accurate estimation of PK parameters.
Initially, subjects were dosed 2 hours after a high fat meal with a relatively high fat lunch provided 1 hour after dosing. After blinded review of the PK profiles in the initial 8 subjects, the fat content of the lunch was reduced in an attempt to reduce the time to Tmax, so that the Cmax would fall within the timeframe of TMS measurements. In addition, the timing of the meal relative to dose was changed from 2 hours prior, to 30 minutes prior to dose and subsequently the fat content of the breakfast was reduced. All these changes were made in attempts to provide higher plasma levels during the TMS assessment periods. The timing and type of meal for each subject is specified in Table 13. […] As such the PK data is presented without categorization according to meal content, or relative timing of the meal.

[1] = 20 mg, Full PK Profile (N=16), Mean ± SD
[2] = 20 mg, Full PK Profile (N=16), Range
[3] = 20 mg, Full PK Profile Data Set (N=16), Range
[4] = 20 mg, Full PK Profile Data Set (N=16), Mean ± SD

For `Cc1cc(N2CCc3cc(F)ccc3C2)cc(C)c1NC(=O)CC(C)(C)C` [Compound A, N-[4-(6-fluoro-3,4-dihydro-1H-isoquinolin-2-yl)-2,6-dimethylphenyl]-3,3-dimethylbutanamide], the “time of median peak plasma concentrations after administration” value (20 mg oral dose) was “approximately 8 hours”, the Tlast [1] was 235 ± 81.5 h and the Tlast [2] was 142 to 360 h. The MRTinf [3] was 33 ± 304 h, the t1/2 [3] was 48.2 ± 306 h and the Tlast (20 mg, Overall (N=20), Mean) was 23.8 h. For the same compound, the Tlast (20 mg, Overall (N=20), Range) was 23.1 to 24.3 h, the Tlast (20 mg, Period 1 (N=10), Mean) was 23.8 h and the Tlast (20 mg, Period 1 (N=10), Range) was 23.1 to 24.3 h. For the same compound, the Tlast (20 mg, Period 2 (N=10), Mean) was 23.8 h, the Tlast (20 mg, Period 2 (N=10), Range) was 23.5 to 24.1 h and the “% AUCextrap, highest values” (20 mg, a number of subjects above 20%) was ≤ 40%. The “extrapolated area (% AUCextrap)” value (20 mg, median) was 19.9%, the “extrapolated area (% AUCextrap)” value (20 mg, range) was 10.6-40.5% and the “Compound A Plasma Concentration” value (Compound A Treatment Period, 20 mg, 2 h, 5 minutes before TMS) was 47.2 ng/mL and 1.55 ng/mL and 34 ng/mL and 0 ng/mL (5×) and 55.2 ng/mL and 10.6 ng/mL and 47.1 ng/mL and 3.1 ng/mL and 1.95 ng/mL and 25.7 ng/mL and 2.74 ng/mL and 10.7 ng/mL and 2.52 ng/mL and 8.01 ng/mL. For the same compound, the “Compound A Plasma Concentration” value (Compound A Treatment Period, 20 mg, 4 h, 5 minutes before TMS) was 38.7 ng/mL and 8.92 ng/mL and 48.4 ng/mL and 16.5 ng/mL and 50 ng/mL and 24.5 ng/mL and 38 ng/mL and 4.91 ng/mL and 2.54 ng/mL and 29.8 ng/mL and 4.06 ng/mL and 60.7 ng/mL and 22.3 ng/mL and 32.7 ng/mL and 52.1 ng/mL and 8.77 ng/mL and 41.9 ng/mL, the “Compound A Plasma Concentration” value (Compound A Treatment Period, 20 mg, 6 h, 5 minutes before TMS) was 49.7 ng/mL and 71.2 ng/mL and 48.5 ng/mL and 47.0 ng/mL and 39.1 ng/mL and 37.6 ng/mL and 4.43 ng/mL and 51.9 ng/mL and 6.23 ng/mL and 57.6 ng/mL and 53.2 ng/mL and 54.9 ng/mL and 52.2 ng/mL and 25.1 ng/mL and 79.4 ng/mL and the “Compound A Plasma Concentration” value (Placebo Treatment Period (carry-over), 2 h) was 0 ng/mL (9×) and 4.96 ng/mL and 5.27 ng/mL and 6.28 ng/mL and 3.81 ng/mL and 5.74 ng/mL and 3.94 ng/mL and 7.44 ng/mL and 8.04 ng/mL. For the same compound, the “Compound A Plasma Concentration” value (Placebo Treatment Period (carry-over), 4 h) was 0 ng/mL (9×) and 4.35 ng/mL and 4.48 ng/mL and 5.51 ng/mL and 3.6 ng/mL and 5.36 ng/mL and 3.66 ng/mL and 6.83 ng/mL and 8.15 ng/mL, the “Compound A Plasma Concentration” value (Placebo Treatment Period (carry-over), 6 h) was 0 ng/mL (8×) and 5.56 ng/mL and 5.75 ng/mL and 3.42 ng/mL and 5.61 ng/mL and 3.44 ng/mL and 6.67 ng/mL and 8.22 ng/mL and the “Average high concentration of Compound A” value (during TMS assessment (FIG. 11, 12)) was 45 ng/mL. The concentration at 2 h (20 mg, Compound A Treatment Period, 2 h, Mean) was 15.9 ng/mL, the concentration at 4 h (20 mg, Compound A Treatment Period, 4 h, Mean) was 30.1 ng/mL and the concentration at 6 h (20 mg, Compound A Treatment Period, 6 h, Mean) was 42.1 ng/mL. It also gave a half-life [1] of 127 ± 84.6 h, an AUC(0-t) (20 mg, Full PK Profile (N=16), Mean ± SD, read-out: AUC0-24) of 692 ± 151 ng·h/mL and a Cmax (20 mg, Full PK Profile (N=16), Mean ± SD, read-out: Cmax) of 60.1 ± 14.9 ng/mL. For the same compound, the Tmax (20 mg, Full PK Profile (N=16), Median) was 6.83 h, the Tmax [2] was 1.92 to 12 h and the half-life [2] was 48.2 to 306 h. The AUC(0-t) (20 mg, Full PK Profile (N=16), Range, read-out: AUC0-24) was 383 to 951 ng·h/mL, the Cmax (20 mg, Full PK Profile (N=16), Range, read-out: Cmax) was 29.9 to 79.4 ng/mL and the AUC(0-inf) [4] was 3160 ng·h/mL. For the same compound, the MRT inf [4] was 102 h, the MRT last [4] was 77.4 ± 23.7 h and the half-life [4] was 127 h. The AUC(0-t) (20 mg, Full PK Profile Data Set (N=16), Mean ± SD, read-out: AUClast) was 2370 ng·h/mL, the CL/F (20 mg, Full PK Profile Data Set (N=16), Mean ± SD, read-out: CL/F normalized (converted)) was 1.62 mL/min/kg and the Vd/F [4] was 16.3 L/kg. It also gave an AUC(0-inf) [3] of 1920 ± 7390 ng·h/mL, an MRT inf [3] of 33 to 304 h and an MRT last [3] of 48.2 ± 122 h. For the same compound, the half-life [3] was 48.2 to 306 h, the AUC(0-t) (20 mg, Full PK Profile Data Set (N=16), Range, read-out: AUClast) was 1580 ± 4400 ng·h/mL and the CL/F (20 mg, Full PK Profile Data Set (N=16), Range, read-out: CL/F normalized (converted)) was 0.672 mL/min/kg. It also gave a Vd/F [3] of 6.4 ± 33.8 L/kg, a half-life (20 mg, Overall (N=20), 24 h sampling, Mean ± SD) of 11.1 ± 2.6 h and a half-life (20 mg, Overall (N=20), 24 h sampling, Range) of 8.01 to 14.9 h. It also gave an AUC(0-t) (20 mg, Overall (N=20), Mean ± SD, read-out: AUC0-24) of 687 ± 160 ng·h/mL, a Cmax (20 mg, Overall (N=20), Mean ± SD, read-out: Cmax) of 59.2 ± 13.8 ng/mL and a Tmax (20 mg, Overall (N=20), Median) of 7.8 h. It also gave a Tmax (20 mg, Overall (N=20), Range) of 1.9 to 12 h, an AUC(0-t) (20 mg, Overall (N=20), Range, read-out: AUC0-24) of 358 to 951 ng·h/mL and a Cmax (20 mg, Overall (N=20), Range, read-out: Cmax) of 29.9 to 79.4 ng/mL. For the same compound, the half-life (20 mg, Period 1 (N=10), 24 h sampling, Mean ± SD) was 11.4 ± 2.6 h, the half-life (20 mg, Period 1 (N=10), 24 h sampling, Range) was 8.46 to 14.9 h and the AUC(0-t) (20 mg, Period 1 (N=10), Mean ± SD, read-out: AUC0-24) was 693 ± 184 ng·h/mL. It also gave a Cmax (20 mg, Period 1 (N=10), Mean ± SD, read-out: Cmax) of 60.2 ± 17.3 ng/mL, a Tmax (20 mg, Period 1 (N=10), Median) of 6.94 h and a Tmax (20 mg, Period 1 (N=10), Range) of 1.92 to 12 h. The AUC(0-t) (20 mg, Period 1 (N=10), Range, read-out: AUC0-24) was 383 to 951 ng·h/mL, the Cmax (20 mg, Period 1 (N=10), Range, read-out: Cmax) was 29.9 to 77.1 ng/mL and the half-life (20 mg, Period 2 (N=10), 24 h sampling, Mean ± SD) was 10.6 ± 2.9 h. It also gave a half-life (20 mg, Period 2 (N=10), 24 h sampling, Range) of 8.01 to 14.3 h, an AUC(0-t) (20 mg, Period 2 (N=10), Mean ± SD, read-out: AUC0-24) of 681 ± 142 ng·h/mL and a Cmax (20 mg, Period 2 (N=10), Mean ± SD, read-out: Cmax) of 58.3 ± 9.94 ng/mL. It also gave a Tmax (20 mg, Period 2 (N=10), Median) of 7.83 h, a Tmax (20 mg, Period 2 (N=10), Range) of 1.92 to 8.15 h and an AUC(0-t) (20 mg, Period 2 (N=10), Range, read-out: AUC0-24) of 358 to 869 ng·h/mL. It also gave a Cmax (20 mg, Period 2 (N=10), Range, read-out: Cmax) of 46.2 to 79.4 ng/mL, a concentration at 2 h (20 mg, Placebo Treatment Period (carry-over), 2 h, Mean, read-out: Compound A Plasma Concentration) of 5.46 ng/mL and a concentration at 4 h (20 mg, Placebo Treatment Period (carry-over), 4 h, Mean, read-out: Compound A Plasma Concentration) of 5.17 ng/mL. It also gave a concentration at 6 h (20 mg, Placebo Treatment Period (carry-over), 6 h, Mean, read-out: Compound A Plasma Concentration) of 5.28 ng/mL, a CL/F (20 mg, equivalent of 97.5 mL/h/kg, read-out: Body weight normalized clearance (CL/F)) of ~1.6 mL/min/kg and a Cmax (20 mg, subjects who received placebo in Period 2, mean, read-out: Cmax of Compound A in placebo treatment period) of 5.84 ng/mL. The Cmax (20 mg, subjects who received placebo in Period 2, range, read-out: Cmax of Compound A in placebo treatment period) was 3.34 to 9.61 ng/mL.
